From patent US12264158B2, “Protein kinase MKK4 inhibitors for promoting liver regeneration or reducing or preventing hepatocyte death” (HEPAREGENIX GMBH, priority 2018, dated 2025)

Tests used:
[1] = target: T1, MKK4 active (Homo sapiens, UniProt P45985); test: Radiometric protein kinase assay, MKK4 active; format: biochemical; conditions: substrate JNK1 KRKR, ATP 0.2 μM, read-out: MKK4, potency derived from IC50-values
T1 construct: purchased ProQinase #0948-0000-1
T1 sequence (P45985 1-399): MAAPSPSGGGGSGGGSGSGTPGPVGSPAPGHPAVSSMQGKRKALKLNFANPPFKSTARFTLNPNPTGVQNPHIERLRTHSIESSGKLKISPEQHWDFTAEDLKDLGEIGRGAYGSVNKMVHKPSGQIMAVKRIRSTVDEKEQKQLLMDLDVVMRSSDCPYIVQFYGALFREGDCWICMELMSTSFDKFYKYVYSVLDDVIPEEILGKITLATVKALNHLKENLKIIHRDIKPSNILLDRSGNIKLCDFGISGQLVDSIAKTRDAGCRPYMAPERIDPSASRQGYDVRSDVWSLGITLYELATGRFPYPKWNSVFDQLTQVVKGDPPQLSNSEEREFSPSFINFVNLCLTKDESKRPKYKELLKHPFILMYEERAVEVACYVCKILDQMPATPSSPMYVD
Description: (§1) A radiometric protein kinase assay was used for measuring the kinase activity of the respective protein kinases. All kinase assays were performed in 96-well polypropylene plates. After the reactions were stopped, the assay mixtures were transferred to 96-well MSFC filter-plates (Millipore). The reaction mix was passed through the filter membrane by aspiration, the membrane was washed 3 times with 150 mM H3PO4, once with ethanol, dried and liquid scintillation cocktail was added. Radioactivity was determined by counting of the samples in a Microbeta multiwell scintillation counter (Wallac).

[2] = target: T2, MKK7 (Homo sapiens, UniProt O14733); test: KINOMEscan competition binding assay, selectivity against off-target MKK7; conditions: concentration of 100 nM
T2 construct: M1/R419; host or cells: HEK-293
T2 sequence (O14733 1-419): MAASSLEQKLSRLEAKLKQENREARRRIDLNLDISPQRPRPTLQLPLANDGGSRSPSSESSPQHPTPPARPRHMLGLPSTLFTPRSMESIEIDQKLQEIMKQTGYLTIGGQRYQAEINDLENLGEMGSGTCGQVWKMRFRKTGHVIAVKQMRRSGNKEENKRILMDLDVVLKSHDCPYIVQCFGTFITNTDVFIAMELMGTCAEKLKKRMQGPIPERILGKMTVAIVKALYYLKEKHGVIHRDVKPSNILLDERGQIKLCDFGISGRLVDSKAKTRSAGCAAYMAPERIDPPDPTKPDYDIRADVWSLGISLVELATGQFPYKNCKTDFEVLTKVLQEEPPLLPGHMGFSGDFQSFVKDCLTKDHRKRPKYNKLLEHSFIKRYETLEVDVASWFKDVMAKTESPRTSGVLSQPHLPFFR
Description: (§2) The assay was performed by combining three components: DNA-tagged kinase; immobilized ligand; and a test compound. The ability of the test compound to compete with the immobilized ligand was measured via quantitative PCR of the DNA tag. The technology is described in detail in Fabian, M. A. et al. A small molecule-kinase interaction map for clinical kinase inhibitors. Nat. […] M. W. et al. A quantitative analysis of kinase inhibitor selectivity, Nat.
(§3) For investigation of the affinity to MKK4, MKK7 and JNK1, the kinases were produced in HEK-293 cells and subsequently tagged with DNA for qPCR detection. […] The liganded beads were blocked with excess biotin and washed with blocking buffer (SEABLOCK™ (Pierce), 1% BSA, 0.05% TWEEN®20, 1 mM DTT) to remove unbound ligand and to reduce nonspecific binding. […] All reactions were performed in polystyrene 96-well plates in a final volume of 0.135 mL. […] The kinase concentration in the eluates was measured by qPCR.
(§4) The test compounds were provided as 10 mM stock solutions. The test solutions at indicated final concentrations were prepared at DiscoverX.

[3] = target: BRaf (Homo sapiens, UniProt P15056); test: KINOMEscan competition binding assay, selectivity against off-target BRaf; conditions: concentration of 100 nM
Description: as §2, §4

[4] = target: T3, JNK1 (Homo sapiens, UniProt P45983); test: KINOMEscan competition binding assay, selectivity against off-target JNK1; conditions: concentration of 100 nM
T3 construct: M1/Q384; host or cells: HEK-293
Description: as §2, §3, §4

[5] = target: T4, MKK4 (Homo sapiens, UniProt P45985); test: KINOMEscan competition binding assay, MKK4 potency; conditions: concentration of 100 nM
T4 construct: S84/D399; host or cells: HEK-293
T4 sequence (P45985 84-399): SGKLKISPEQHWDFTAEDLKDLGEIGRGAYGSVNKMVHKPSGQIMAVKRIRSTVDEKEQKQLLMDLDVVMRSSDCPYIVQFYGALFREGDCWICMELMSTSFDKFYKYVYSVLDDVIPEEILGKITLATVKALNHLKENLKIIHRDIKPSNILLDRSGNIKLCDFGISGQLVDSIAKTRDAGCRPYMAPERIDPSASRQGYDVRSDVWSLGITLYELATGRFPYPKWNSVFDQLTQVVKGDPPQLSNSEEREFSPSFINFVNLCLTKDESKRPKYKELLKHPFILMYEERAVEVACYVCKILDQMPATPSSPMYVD
Description: as §2, §3, §4

[6] = target: T5, MEKK2 (Homo sapiens, UniProt Q9Y2U5); test: Radiometric protein kinase assay, MEKK2; format: biochemical; conditions: substrate Casein, ATP 0.2 μM; read-out: MEKK2, potency derived from IC50-values
T5 construct: purchased ProQinase #0583-0000-1
T5 sequence (Q9Y2U5 1-619): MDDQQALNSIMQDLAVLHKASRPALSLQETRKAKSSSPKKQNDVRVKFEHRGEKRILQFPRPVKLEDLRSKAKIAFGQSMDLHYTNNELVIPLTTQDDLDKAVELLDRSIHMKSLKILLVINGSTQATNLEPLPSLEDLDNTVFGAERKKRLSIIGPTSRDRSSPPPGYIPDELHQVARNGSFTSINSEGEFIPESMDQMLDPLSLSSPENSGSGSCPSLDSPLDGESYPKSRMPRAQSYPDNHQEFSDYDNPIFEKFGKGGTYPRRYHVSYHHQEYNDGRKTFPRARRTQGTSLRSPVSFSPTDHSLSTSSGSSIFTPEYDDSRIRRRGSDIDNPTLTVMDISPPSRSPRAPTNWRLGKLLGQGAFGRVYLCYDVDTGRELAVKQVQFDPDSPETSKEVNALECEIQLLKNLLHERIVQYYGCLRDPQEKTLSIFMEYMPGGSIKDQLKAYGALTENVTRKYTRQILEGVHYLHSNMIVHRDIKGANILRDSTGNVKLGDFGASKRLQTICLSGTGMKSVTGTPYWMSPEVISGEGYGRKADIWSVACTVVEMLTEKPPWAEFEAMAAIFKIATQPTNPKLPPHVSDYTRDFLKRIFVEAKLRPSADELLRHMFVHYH
Description: as §1

BRaf, sequence (P15056 whole entry): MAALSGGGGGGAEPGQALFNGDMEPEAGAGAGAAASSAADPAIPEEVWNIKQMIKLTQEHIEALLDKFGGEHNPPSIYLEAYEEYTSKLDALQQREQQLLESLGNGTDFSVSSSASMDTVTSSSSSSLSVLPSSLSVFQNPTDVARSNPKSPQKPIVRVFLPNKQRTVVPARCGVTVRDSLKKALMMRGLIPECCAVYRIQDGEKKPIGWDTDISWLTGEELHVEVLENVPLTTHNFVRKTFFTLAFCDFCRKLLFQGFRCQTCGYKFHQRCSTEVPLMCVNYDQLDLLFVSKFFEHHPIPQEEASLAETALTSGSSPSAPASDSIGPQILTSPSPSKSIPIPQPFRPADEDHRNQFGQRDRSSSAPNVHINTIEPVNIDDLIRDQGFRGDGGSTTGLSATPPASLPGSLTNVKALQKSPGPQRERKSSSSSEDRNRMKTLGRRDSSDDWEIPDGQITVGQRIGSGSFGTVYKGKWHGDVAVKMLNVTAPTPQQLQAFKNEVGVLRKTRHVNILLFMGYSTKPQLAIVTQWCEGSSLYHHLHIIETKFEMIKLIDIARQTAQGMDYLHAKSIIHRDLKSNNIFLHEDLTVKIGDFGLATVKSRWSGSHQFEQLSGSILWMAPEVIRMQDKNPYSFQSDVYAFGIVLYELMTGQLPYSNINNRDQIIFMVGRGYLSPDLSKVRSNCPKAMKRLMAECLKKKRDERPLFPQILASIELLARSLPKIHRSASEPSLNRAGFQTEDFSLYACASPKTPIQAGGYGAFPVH
T3 sequence (P45983 1-384 isoform P45983-2): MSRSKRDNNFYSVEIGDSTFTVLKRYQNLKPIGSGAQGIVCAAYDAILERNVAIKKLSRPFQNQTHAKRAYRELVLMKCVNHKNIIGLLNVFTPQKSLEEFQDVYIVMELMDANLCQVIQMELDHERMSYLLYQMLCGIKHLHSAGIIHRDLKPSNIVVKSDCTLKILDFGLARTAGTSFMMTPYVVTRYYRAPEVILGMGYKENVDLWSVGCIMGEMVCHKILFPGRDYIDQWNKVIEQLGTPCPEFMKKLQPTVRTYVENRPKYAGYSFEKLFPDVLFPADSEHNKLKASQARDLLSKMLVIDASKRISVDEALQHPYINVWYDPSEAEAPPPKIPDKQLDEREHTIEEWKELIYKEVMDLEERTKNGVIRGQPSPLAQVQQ

Row | IC50 [1] | IC50 [6] | Structure (SMILES) | also measured
1 | < 500 nM |  | CS(=O)(=O)Nc1c(F)ccc(C(=O)c2n[nH]c3ncc(-c4ccc(C(N)=O)cc4)cc23)c1F [Example 54b, 4-[3-[2,4-difluoro-3-(methanesulfonamido)benzoyl]-1H-pyrazolo[3,4-b]pyridin-5-yl]benzamide] | 
2 | < 500 nM |  | CS(=O)(=O)Nc1c(F)ccc(C(=O)c2n[nH]c3ncc(-c4ccc(C(=O)O)cc4)cc23)c1F [Example 55, 4-[3-[2,4-difluoro-3-(methanesulfonamido)benzoyl]-1H-pyrazolo[3,4-b]pyridin-5-yl]benzoic acid] | 
3 | < 500 nM |  | CCCS(=O)(=O)Nc1c(F)ccc(C(=O)c2n[nH]c3ncc(-c4ccccc4Cl)cc23)c1F [Example 64, N-(3-(5-(2-chlorophenyl)-1H-pyrazolo[3,4-b]pyridine-3-carbonyl)-2,6-difluorophenyl)propane-1-sulfonamide] | 
4 |  | 1000 to 10000 nM | CCCS(=O)(=O)Nc1c(F)ccc(C(=O)c2n[nH]c3ncc(-c4ccc(F)cc4C)cc23)c1F [Example 66, N-(2,6-difluoro-3-(5-(4-fluoro-2-methylphenyl)-1H-pyrazolo[3,4-b]pyridine-3-carbonyl)phenyl) propane-1-sulfonamide] | 
5 |  | > 10000 nM | CCCS(=O)(=O)Nc1c(F)ccc(C(=O)c2n[nH]c3ncc(-c4cnc(C(F)(F)F)nc4)cc23)c1F [Example 71, N-(2,6-difluoro-3-(5-(2-(trifluoromethyl)pyrimidin-5-yl)-1H-pyrazolo[3,4-b]pyridine-3-carbonyl)phenyl)propane-1-sulfonamide] | 
6 | < 500 nM |  | CCCS(=O)(=O)Nc1c(F)ccc(C(=O)c2n[nH]c3ncc(-c4ccc(O)cc4)cc23)c1F [Example 76, N-(2,6-difluoro-3-(5-(4-hydroxyphenyl)-1H-pyrazolo[3,4-b]pyridine-3-carbonyl)phenyl)propane-1-sulfonamide] | 

Second part, the compound before the results:

Row | Structure (SMILES) | IC50 [1] | IC50 [6] | also measured
7 | CS(=O)(=O)Nc1c(F)ccc(C(=O)c2n[nH]c3ncc(-c4ccc(-c5nnn[nH]5)cc4)cc23)c1F [Example 54a, N-[2,6-difluoro-3-[5-[4-(1H-tetrazol-5-yl)phenyl]-1H-pyrazolo[3,4-b]pyridine-3-carbonyl]phenyl]methanesulfonamide] | < 500 nM |  | 
8 | CS(=O)(=O)Nc1c(F)ccc(C(=O)c2n[nH]c3ncc(-c4ccc(S(N)(=O)=O)cc4)cc23)c1F [Example 54c, 4-[3-[2,4-difluoro-3-(methanesulfonamido)benzoyl]-1H-pyrazolo[3,4-b]pyridin-5-yl]benzenesulfonamide] | < 500 nM |  | 
9 | CCCS(=O)(=O)Nc1c(F)ccc(C(=O)c2n[nH]c3ncc(-c4ccc(C(=O)O)cc4)cc23)c1F [Example 62, 4-(3-(2,4-difluoro-3-(propylsulfon-amido)benzoyl)-1H-pyrazolo[3,4-b]pyridin-5-yl)benzoic acid] | < 500 nM |  | Selectivity vs. MKK7, ratio PoC(MKK7)/PoC(MKK4) [2]: +++ (PoC(MKK7)/PoC(MKK4) ≥ 30); Selectivity vs. BRaf, ratio PoC(BRaf)/PoC(MKK4) [3]: +++ (PoC(BRaf)/PoC(MKK4) ≥ 30); Selectivity vs. JNK1, ratio PoC(JNK1)/PoC(MKK4) [4]: +++ (PoC(JNK1)/PoC(MKK4) ≥ 30); MKK4, residual percent of control binding (PoC) [5]: +++ (PoC < 1)
10 | CCCS(=O)(=O)Nc1c(F)ccc(C(=O)c2n[nH]c3ncc(-c4ccc(C(C)C)cc4)cc23)c1F [Example 65, N-(2,6-difluoro-3-(5-(4-isopropyl-phenyl)-1H-pyrazolo[3,4-b]pyridine-3-carbonyl)phenyl)propane-1-sulfonamide] |  | 1000 to 10000 nM | 
11 | O=C(c1ccc(F)c(NS(=O)(=O)Cc2ccccc2)c1F)c1n[nH]c2ncc(-c3ccncc3)cc12 [Example 68, N-[2,6-difluoro-3-(5-pyridin-4-yl-1H-pyrazolo[3,4-b]pyridine-3-carbonyl)phenyl]-1-phenylmethanesulfonamide] | < 500 nM |  | Selectivity vs. MKK7, ratio PoC(MKK7)/PoC(MKK4) [2]: +++ (PoC(MKK7)/PoC(MKK4) ≥ 30); Selectivity vs. BRaf, ratio PoC(BRaf)/PoC(MKK4) [3]: +++ (PoC(BRaf)/PoC(MKK4) ≥ 30); Selectivity vs. JNK1, ratio PoC(JNK1)/PoC(MKK4) [4]: +++ (PoC(JNK1)/PoC(MKK4) ≥ 30); MKK4, residual percent of control binding (PoC) [5]: +++ (PoC < 1)
12 | CCCS(=O)(=O)Nc1c(F)ccc(C(=O)c2n[nH]c3ncc(-c4ccc(S(N)(=O)=O)cc4C)cc23)c1F [Example 70, 4-(3-(2,4-difluoro-3-(propylsulfonamido)benzoyl)-1H-pyrazolo[3,4-b]pyridin-5-yl)-3-methylbenzenesulfonamide] |  | 500 to 1000 nM | 
13 | CCCS(=O)(=O)Nc1c(F)ccc(C(=O)c2n[nH]c3ncc(-c4ccc(Cl)cc4C)cc23)c1F [Example 72] |  | 1000 to 10000 nM | 
14 | CCCS(=O)(=O)Nc1c(F)ccc(C(=O)c2n[nH]c3ncc(-c4ccc(C5N=NN=N5)cc4)cc23)c1F [Example 74, N-(3-(5-(4-(1H-tetrazol-5-yl)phenyl)-1H-pyrazolo[3,4-b]pyridine-3-carbonyl)-2,6-difluorophenyl)propane-1-sulfonamide] |  | 1000 to 10000 nM | 
15 | O=C(c1ccc(F)c(NS(=O)(=O)Cc2ccccc2)c1F)c1n[nH]c2ncc(-c3ccc(C4N=NN=N4)cc3)cc12 [Example 75, N-(3-(5-(4-(1H-tetrazol-5-yl)phenyl)-1H-pyrazolo[3,4-b]pyridine-3-carbonyl)-2,6-difluorophenyl)-1-phenylmethanesulfonamide] |  | 1000 to 10000 nM | 
